Patent US9163013B2, “Use of 1H-indazole-3-carboxamide compounds as glycogen synthase kinase 3 beta inhibitors” (AZIENDE CHIMICHE RIUNITE ANGELINI FRANCESCO A.C.R.A.F. …, priority 2012, dated 2015)
Counter-ions that a name gives are not always drawn.

Key:
Assay in all cases: Kinase selectivity panel
Type in all cases: biochemical
[1] = target: PAK1 (h) (Homo sapiens (Human), UniProt Q13153); conditions: duplicate, read-out: % inhibition of control values, PAK1 (h)
Protocol: (§1) (a) Compound 1 was tested against a panel of 60 kinases in order to assess its selectivity. The assays were chosen taking into consideration the diversity of assay families.
(§2) Human recombinant kinases were incubated in the presence of specific peptide substrates plus ATP for different times (10, 15, 30, 60 or 90 minutes) at 22° C. Phosphorylated substrate was detected by LANCE or HTRF technology (CISBIO, MA, USA).
(§3) Compound 1 was tested at 10 μM in duplicate.
(§4) The results are expressed as a percent of inhibition of control specific activity obtained in the presence of the test compound 1 and are reported in the following Table 5.
(§5) (b) Compounds 7, 12, 21 and 24 were tested against the same panel of 60 kinases under the same conditions described above for compound 1.
(§6) The results are expressed as a percent of inhibition of control specific activity obtained in the presence of the test compounds and are reported in the following Table 6.

[2] = target: PDK1 (h) (Homo sapiens (Human), UniProt O15530); conditions: duplicate, read-out: % inhibition of control values, PDK1 (h)
Protocol: as §1, §2, §3, §4, §5, §6

[3] = target: PKCgamma (h) (Homo sapiens (Human), UniProt P05129); conditions: duplicate, read-out: % inhibition of control values, PKCgamma (h)
Protocol: as §1, §2, §3, §4, §5, §6

[4] = target: TAOK2 (TAO1) (h) (Homo sapiens (Human), UniProt Q9UL54); conditions: duplicate, read-out: % inhibition of control values, TAOK2 (TAO1) (h)
Protocol: as §1, §2, §3, §4, §5, §6

[5] = target: c-Met kinase (h) (Homo sapiens (Human), UniProt P08581); conditions: duplicate, read-out: % inhibition of control values, c-Met kinase (h)
Protocol: as §1, §2, §3, §4, §5, §6

[6] = target: MAPKAPK2 (h) (Homo sapiens (Human), UniProt P49137); conditions: duplicate, read-out: % inhibition of control values, MAPKAPK2 (h)
Protocol: as §1, §2, §3, §4, §5, §6

[7] = target: IRK (h) (InsR) (Homo sapiens (Human), UniProt P06213); conditions: duplicate, read-out: % inhibition of control values, IRK (h) (InsR)
Sequence of IRK (h) (InsR) (P06213 28-1382): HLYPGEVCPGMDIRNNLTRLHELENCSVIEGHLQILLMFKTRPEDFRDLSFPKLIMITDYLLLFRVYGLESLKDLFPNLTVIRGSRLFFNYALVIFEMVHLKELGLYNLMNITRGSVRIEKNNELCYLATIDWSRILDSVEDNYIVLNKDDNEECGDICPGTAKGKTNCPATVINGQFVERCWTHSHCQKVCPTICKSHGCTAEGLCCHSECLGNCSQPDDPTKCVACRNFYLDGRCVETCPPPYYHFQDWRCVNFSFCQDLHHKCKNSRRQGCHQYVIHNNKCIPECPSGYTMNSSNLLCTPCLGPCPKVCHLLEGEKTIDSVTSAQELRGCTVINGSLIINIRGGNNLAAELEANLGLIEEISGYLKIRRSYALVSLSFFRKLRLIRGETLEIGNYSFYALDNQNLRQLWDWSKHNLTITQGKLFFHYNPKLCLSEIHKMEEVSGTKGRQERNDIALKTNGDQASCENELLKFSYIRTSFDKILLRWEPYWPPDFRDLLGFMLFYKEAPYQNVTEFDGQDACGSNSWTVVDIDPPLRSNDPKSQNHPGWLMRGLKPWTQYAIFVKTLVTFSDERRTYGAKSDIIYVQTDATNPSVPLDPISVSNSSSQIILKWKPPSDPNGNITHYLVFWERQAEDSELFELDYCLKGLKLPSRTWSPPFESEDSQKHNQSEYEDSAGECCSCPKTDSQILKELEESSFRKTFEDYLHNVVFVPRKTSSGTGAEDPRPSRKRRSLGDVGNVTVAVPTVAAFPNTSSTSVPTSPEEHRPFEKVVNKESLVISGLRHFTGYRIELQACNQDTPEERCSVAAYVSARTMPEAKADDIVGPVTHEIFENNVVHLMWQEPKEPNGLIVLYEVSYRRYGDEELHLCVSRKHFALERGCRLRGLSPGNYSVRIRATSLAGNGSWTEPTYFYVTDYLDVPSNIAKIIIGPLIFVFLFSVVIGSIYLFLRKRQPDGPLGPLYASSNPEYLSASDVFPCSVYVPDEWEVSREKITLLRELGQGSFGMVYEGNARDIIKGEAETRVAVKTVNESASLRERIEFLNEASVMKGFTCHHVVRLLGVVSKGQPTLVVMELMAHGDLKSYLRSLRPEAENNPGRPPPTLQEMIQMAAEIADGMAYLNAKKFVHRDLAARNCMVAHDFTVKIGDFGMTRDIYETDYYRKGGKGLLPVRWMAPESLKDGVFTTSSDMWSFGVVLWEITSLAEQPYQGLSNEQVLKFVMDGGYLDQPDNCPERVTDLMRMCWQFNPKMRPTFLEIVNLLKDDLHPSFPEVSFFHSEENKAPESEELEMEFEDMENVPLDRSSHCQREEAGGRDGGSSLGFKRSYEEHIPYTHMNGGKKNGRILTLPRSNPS
Protocol: as §1, §2, §3, §4, §5, §6

[8] = target: IGF1R kinase (h) (Homo sapiens (Human), UniProt P08069); conditions: duplicate, read-out: % inhibition of control values, IGF1R kinase (h)
Protocol: as §1, §2, §3, §4, §5, §6

[9] = target: IRAK4 (h) (Homo sapiens (Human), UniProt Q9NWZ3); conditions: duplicate, read-out: % inhibition of control values, IRAK4 (h)
Protocol: as §1, §2, §3, §4, §5, §6

[10] = target: EphA4 kinase (h) (Homo sapiens (Human), UniProt P54764); conditions: duplicate, read-out: % inhibition of control values, EphA4 kinase (h)
Protocol: as §1, §2, §3, §4, §5, §6

[11] = target: AurA/Aur2 kinase (h) (Homo sapiens (Human), UniProt O14965); conditions: duplicate, read-out: % inhibition of control values, AurA/Aur2 kinase (h)
Protocol: as §1, §2, §3, §4, §5, §6

[12] = target: Pim1 kinase (h) (Homo sapiens (Human), UniProt P11309); conditions: duplicate, read-out: % inhibition of control values, Pim1 kinase (h)
Protocol: as §1, §2, §3, §4, §5, §6

[13] = target: Ret kinase (h) (Homo sapiens (Human), UniProt P07949); conditions: duplicate, read-out: % inhibition of control values, Ret kinase (h)
Protocol: as §1, §2, §3, §4, §5, §6

[14] = target: DCAMKL1 (h) (Homo sapiens (Human), UniProt O15075); conditions: duplicate, read-out: % inhibition of control values, DCAMKL1 (h)
Protocol: as §1, §2, §3, §4, §5, §6

[15] = target: PhKgamma 2 (h) (Homo sapiens (Human), UniProt P15735); conditions: duplicate, read-out: % inhibition of control values, PhKgamma 2 (h)
Sequence of PhKgamma 2 (h) (P15735 whole entry): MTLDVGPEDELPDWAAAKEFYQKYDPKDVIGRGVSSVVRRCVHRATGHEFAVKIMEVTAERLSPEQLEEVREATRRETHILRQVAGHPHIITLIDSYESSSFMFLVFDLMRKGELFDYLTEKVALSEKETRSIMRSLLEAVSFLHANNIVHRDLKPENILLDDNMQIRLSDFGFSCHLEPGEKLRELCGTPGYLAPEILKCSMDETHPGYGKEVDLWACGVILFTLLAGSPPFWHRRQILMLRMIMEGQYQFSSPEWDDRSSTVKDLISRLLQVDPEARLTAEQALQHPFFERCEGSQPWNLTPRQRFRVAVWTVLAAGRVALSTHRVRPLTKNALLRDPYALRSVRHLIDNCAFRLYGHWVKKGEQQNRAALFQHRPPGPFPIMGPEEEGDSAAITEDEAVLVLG
Protocol: as §1, §2, §3, §4, §5, §6

[16] = target: PKA (h) (Homo sapiens (Human), UniProt P17612); conditions: duplicate, read-out: % inhibition of control values, PKA (h)
Protocol: as §1, §2, §3, §4, §5, §6

[17] = target: MYT1 kinase (h) (Homo sapiens (Human), UniProt Q99640); conditions: duplicate, read-out: % inhibition of control values, MYT1 kinase (h)
Protocol: as §1, §2, §3, §4, §5, §6

[18] = target: DAPK1 (h) (Homo sapiens (Human), UniProt P53355); conditions: duplicate, read-out: % inhibition of control values, DAPK1 (h)
Sequence of DAPK1 (h) (P53355 whole entry): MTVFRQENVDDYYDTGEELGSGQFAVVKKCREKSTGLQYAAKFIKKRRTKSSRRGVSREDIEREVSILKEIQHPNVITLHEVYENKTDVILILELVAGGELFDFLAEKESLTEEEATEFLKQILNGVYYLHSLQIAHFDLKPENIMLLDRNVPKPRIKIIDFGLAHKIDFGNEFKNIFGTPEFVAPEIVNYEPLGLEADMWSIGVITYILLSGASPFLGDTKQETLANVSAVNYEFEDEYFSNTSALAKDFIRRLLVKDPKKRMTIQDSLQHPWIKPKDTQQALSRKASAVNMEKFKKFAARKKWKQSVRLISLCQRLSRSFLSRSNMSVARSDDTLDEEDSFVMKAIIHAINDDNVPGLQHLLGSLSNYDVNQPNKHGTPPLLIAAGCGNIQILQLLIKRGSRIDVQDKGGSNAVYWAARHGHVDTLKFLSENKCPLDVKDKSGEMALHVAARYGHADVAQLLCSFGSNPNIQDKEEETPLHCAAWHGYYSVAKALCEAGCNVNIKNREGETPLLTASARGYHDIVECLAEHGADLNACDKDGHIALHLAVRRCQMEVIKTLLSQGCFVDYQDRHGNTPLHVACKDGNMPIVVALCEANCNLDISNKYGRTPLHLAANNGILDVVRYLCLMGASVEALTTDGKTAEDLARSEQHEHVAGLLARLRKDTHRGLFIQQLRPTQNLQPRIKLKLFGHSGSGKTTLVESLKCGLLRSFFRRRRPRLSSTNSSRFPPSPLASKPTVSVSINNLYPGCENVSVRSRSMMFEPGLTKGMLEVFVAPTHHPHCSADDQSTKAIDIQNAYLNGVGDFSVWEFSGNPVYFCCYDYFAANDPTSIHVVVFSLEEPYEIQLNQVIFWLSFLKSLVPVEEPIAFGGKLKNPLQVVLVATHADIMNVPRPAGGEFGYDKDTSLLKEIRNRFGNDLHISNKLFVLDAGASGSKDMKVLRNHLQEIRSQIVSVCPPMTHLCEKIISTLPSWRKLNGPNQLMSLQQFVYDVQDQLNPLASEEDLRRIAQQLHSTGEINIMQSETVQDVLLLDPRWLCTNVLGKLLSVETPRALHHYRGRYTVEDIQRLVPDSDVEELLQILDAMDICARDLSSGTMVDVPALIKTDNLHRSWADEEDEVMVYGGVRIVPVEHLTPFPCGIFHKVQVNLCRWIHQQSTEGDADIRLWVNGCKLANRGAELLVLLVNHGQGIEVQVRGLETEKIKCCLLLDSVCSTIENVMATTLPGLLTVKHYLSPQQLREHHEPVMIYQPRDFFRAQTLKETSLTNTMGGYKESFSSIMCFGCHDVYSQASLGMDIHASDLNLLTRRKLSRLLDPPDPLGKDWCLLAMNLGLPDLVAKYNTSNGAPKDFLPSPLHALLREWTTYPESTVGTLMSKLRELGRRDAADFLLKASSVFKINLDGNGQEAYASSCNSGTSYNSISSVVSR
Protocol: as §1, §2, §3, §4, §5, §6

[19] = target: JAK2 (h) (Homo sapiens (Human), UniProt O60674); conditions: duplicate, read-out: % inhibition of control values, JAK2 (h)
Sequence of JAK2 (h) (O60674 whole entry): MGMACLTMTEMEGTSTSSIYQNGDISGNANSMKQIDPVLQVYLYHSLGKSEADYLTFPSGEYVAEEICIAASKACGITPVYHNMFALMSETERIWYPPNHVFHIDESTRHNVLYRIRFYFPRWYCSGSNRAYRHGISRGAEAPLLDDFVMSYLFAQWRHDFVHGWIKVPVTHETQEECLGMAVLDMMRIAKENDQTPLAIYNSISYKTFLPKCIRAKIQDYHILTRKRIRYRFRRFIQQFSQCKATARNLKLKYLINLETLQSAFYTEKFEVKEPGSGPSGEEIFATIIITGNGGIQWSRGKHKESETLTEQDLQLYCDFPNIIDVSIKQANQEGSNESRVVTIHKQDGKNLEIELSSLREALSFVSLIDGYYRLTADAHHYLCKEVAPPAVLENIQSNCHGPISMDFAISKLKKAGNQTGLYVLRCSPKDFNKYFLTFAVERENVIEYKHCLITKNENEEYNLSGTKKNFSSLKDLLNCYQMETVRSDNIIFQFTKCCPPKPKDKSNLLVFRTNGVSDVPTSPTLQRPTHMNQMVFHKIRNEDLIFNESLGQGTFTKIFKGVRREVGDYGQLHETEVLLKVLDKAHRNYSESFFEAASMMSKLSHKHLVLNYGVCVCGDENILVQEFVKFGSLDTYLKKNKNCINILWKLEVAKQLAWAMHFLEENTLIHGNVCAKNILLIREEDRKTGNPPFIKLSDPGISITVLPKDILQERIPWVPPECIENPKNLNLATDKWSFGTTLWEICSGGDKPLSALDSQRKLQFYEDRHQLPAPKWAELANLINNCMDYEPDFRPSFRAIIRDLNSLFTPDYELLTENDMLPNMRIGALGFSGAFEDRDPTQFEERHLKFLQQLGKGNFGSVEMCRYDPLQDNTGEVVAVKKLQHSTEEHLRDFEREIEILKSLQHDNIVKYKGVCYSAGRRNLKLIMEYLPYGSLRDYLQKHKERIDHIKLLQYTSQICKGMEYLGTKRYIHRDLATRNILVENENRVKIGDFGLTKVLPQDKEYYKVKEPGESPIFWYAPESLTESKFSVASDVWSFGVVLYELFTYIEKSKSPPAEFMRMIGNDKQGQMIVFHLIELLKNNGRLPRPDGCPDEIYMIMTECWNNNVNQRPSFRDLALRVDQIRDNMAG
Protocol: as §1, §2, §3, §4, §5, §6

[20] = target: CDC2/CDK1 (h) (cycB) (Homo sapiens (Human), UniProt P06493); conditions: duplicate, read-out: % inhibition of control values, CDC2/CDK1 (h) (cycB)
Sequence of CDC2/CDK1 (h) (cycB) (P06493 whole entry): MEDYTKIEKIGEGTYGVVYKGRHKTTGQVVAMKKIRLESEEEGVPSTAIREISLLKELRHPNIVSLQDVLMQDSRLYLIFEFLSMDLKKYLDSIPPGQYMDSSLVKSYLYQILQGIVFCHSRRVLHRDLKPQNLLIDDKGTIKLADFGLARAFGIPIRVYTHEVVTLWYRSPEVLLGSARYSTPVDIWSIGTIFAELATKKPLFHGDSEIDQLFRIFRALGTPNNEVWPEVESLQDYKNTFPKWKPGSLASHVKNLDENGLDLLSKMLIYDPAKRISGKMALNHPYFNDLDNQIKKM
Sequence of CDC2/CDK1 (h) (cycB) (P14635 whole entry partner): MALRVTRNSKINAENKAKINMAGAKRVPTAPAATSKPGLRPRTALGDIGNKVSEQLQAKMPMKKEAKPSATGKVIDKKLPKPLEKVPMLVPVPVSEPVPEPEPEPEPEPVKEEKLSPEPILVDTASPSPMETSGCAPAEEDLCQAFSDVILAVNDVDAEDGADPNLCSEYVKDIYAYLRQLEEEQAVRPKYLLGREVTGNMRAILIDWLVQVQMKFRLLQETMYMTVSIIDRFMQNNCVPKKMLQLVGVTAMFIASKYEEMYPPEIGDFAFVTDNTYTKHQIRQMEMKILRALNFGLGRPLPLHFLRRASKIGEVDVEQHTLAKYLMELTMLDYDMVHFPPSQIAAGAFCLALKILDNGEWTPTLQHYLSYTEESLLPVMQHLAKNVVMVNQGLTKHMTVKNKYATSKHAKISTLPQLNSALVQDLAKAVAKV
Protocol: as §1, §2, §3, §4, §5, §6

[21] = target: DLK1 (h) (MAP3K12) (Homo sapiens (Human), UniProt Q12852); conditions: duplicate, read-out: % inhibition of control values, DLK1 (h) (MAP3K12)
Protocol: as §1, §2, §3, §4, §5, §6

[22] = target: GRK3/BARK2 (h) (ADRBK2) (Homo sapiens (Human), UniProt P35626); conditions: duplicate, read-out: % inhibition of control values, GRK3/BARK2 (h) (ADRBK2)
Protocol: as §1, §2, §3, §4, §5, §6

[23] = target: RSK2 (h) (Homo sapiens (Human), UniProt P51812); conditions: duplicate, read-out: % inhibition of control values, RSK2 (h)
Protocol: as §1, §2, §3, §4, §5, §6

[24] = target: Src kinase (h) (Homo sapiens (Human), UniProt P12931); conditions: duplicate, read-out: % inhibition of control values, Src kinase (h)
Protocol: as §1, §2, §3, §4, §5, §6

[25] = target: Abl kinase (h) (Homo sapiens (Human), UniProt P00519); conditions: duplicate, read-out: % inhibition of control values, Abl kinase (h)
Protocol: as §1, §2, §3, §4, §5, §6

| SMILES | inhibition at 10 µM [1] [%] | inhibition at 10 µM [2] [%] | inhibition at 10 µM [3] [%] | inhibition at 10 µM [4] [%] | inhibition at 10 µM [5] [%] | inhibition at 10 µM [6] [%] | inhibition at 10 µM [7] [%] | inhibition at 10 µM [8] [%] | inhibition at 10 µM [9] [%] | inhibition at 10 µM [10] [%] | inhibition at 10 µM [11] [%] | inhibition at 10 µM [12] [%] | inhibition at 10 µM [13] [%] | inhibition at 10 µM [14] [%] | inhibition at 10 µM [15] [%] | inhibition at 10 µM [16] [%] | inhibition at 10 µM [17] [%] | inhibition at 10 µM [18] [%] | inhibition at 10 µM [19] [%] | inhibition at 10 µM [20] [%] | further results |
| --- | --- | --- | --- | --- | --- | --- | --- | --- | --- | --- | --- | --- | --- | --- | --- | --- | --- | --- | --- | --- | --- |
| COc1ccc2[nH]nc(C(=O)NCC3CCN(Cc4ccc(C(=O)O)o4)CC3)c2c1 [Compound 24, 5-{[4-({[(5-Methoxy-1H-indazol-3-yl)carbonyl]amino}methyl)piperidin-1-yl]methyl}furan-2-carboxylic acid] | 1 | 0 | 0 | 8 | 2 | 0 | 3 | 0 | 1 | 0 | 4 | 2 | 0 | 0 | 0 | 0 | 0 | 15 | 0 | 10 | inhibition at 10 µM [21]: 0%; inhibition at 10 µM [22]: 0%; inhibition at 10 µM [23]: 1%; inhibition at 10 µM [24]: 0%; inhibition at 10 µM [25]: 0% |
| COc1ccncc1-c1ccc2[nH]nc(C(=O)NCC3CCN(Cc4ccc(C(=O)O)o4)CC3)c2c1 [Compound 21, 5-({4-[({[5-(4-Methoxypyridin-3-yl)-1H-indazol-3-yl]carbonyl}amino)methyl]piperidin-1-yl}methyl)furan-2-carboxylic acid formate] | 4 | 0 | 0 | 54 | 0 | 0 | 0 | 0 | 18 | 2 | 30 | 10 | 0 | 0 | 0 | 3 | 0 | 5 | 2 | 99 | inhibition at 10 µM [21]: 46%; inhibition at 10 µM [22]: 4%; inhibition at 10 µM [23]: 20%; inhibition at 10 µM [24]: 0%; inhibition at 10 µM [25]: 0% |
| COc1ccc2[nH]nc(C(=O)NCC3CCN(CCc4ccc(O)cc4)CC3)c2c1 [Compound 1, N-({1-[2-(4-hydroxyphenyl)ethyl]-piperidin-4-yl}methyl)-5-methoxy-1H-indazole-3-carboxamide] | 4 | 8 | 0 | 41 | 0 | 0 | 18 | 5 | 0 | 0 | 1 | 2 | 1 | 4 | 6 | 0 | 1 | 10 | 0 | 31 | inhibition at 10 µM [21]: 10%; inhibition at 10 µM [22]: 8%; inhibition at 10 µM [23]: 3%; inhibition at 10 µM [24]: 0%; inhibition at 10 µM [25]: 0% |
